The results in this text go back to patent publication US8889903B2, “Synthesis of rare earth metal extractant” (Shin-Etsu Chemical Co., Ltd., priority 2010, dated 2014).

The structures appear in SMILES notation. In brackets after ≈: the same amount, converted by molar mass.

This series is described as follows: Solubility in water. It is filed as physicochemical. As to the method:
If B/A<1.0, which means an excess of diglycolic anhydride for reaction, the desired dialkyl diglycol amic acid is obtained as the reaction product, in which unreacted diglycolic acid may remain. When solvent extraction is carried out using dialkyl diglycol amic acid having diglycolic acid left therein, no satisfactory separation ability is available and the solution becomes white turbid because clad is formed between organic phase and aqueous phase. […] This is because the diglycolic acid remaining along with the metal extractant, dialkyl diglycol amic acid forms a complex with a rare earth metal ion, inhibiting satisfactory extraction and separation. That is, diglycolic acid becomes an inhibitory factor to extraction. To obtain diglycolic acid-free dialkyl diglycol amic acid as the rare earth metal extractant capable of normal extraction and separation, the step of removing unreacted diglycolic acid is necessary as in the prior art method. Specifically, the water-soluble diglycolic acid must be removed by removing the synthesis medium and washing the reaction product with water. […] In order to use the dialkyl diglycol amic acid in crystallized form as the rare earth metal extractant, filtration and drying steps are needed. The process becomes less efficient because extra steps are necessary as compared with the range of 1.0≦B/A≦1.2.

The compound `CCCCCCCCN(CCCCCCCC)C(=O)COCC(=O)O` [DODGAA, N,N-dioctyl-3-oxapentane-1,5-amic acid] displayed a solubility in water of 6.2 µM (≈ 2.22 µg/mL).
